Experimental data reported in patent US12115209B2, “ROMO1-derived antimicrobial peptides including lysine substitution and variants thereof” (KOREA UNIVERSITY RESEARCH AND BUSINESS FOUNDATION, priority 2019, dated 2024).
No end group written: not given here.

Assays:
Assay type in all cases: cell-based
[1] = test system: Staphylococcus aureus (ATCC 29213); assay: Minimum bactericidal concentration (MBC) assay; design: MBC Staphylococcus aureus: unit: µg/mL; settings: Tables 11-21, no unit printed
Method: (§1) First, each of Pseudomonas aeruginosa (ATCC 27853) and Staphylococcus aureus (ATCC 29213) was cultured in 3% (w/v) TSB (tryptic soy broth) liquid medium at 37° C. and 200 rpm for 4 hours, and then further cultured under the same conditions for 3 hours to a concentration of 5×10^6 CFU/ml. Strain solutions were prepared by diluting each of the further cultured strains with SP (sodium phosphate; 10 mM sodium phosphate, 1% TSB) buffer to a final concentration of 2×10^5 CFU/ml.
(§2) Then, each peptide at varying concentrations (0 μg/ml to 300 μg/ml) was dispensed into each well of a 96-well microplate, and 100 μl (1×10^5 CFU/ml) of each of the prepared strain solutions was added thereto, mixed therewith, and allowed to react with the peptide in an incubator at 37° C. for 1 hour.
(§3) In addition, 30 g/L of TS (tryptic soy) and 15 g/L of agar were dissolved in distilled water and sterilized, and then 25 ml of the solution was poured onto a 100 mm round plate and solidified at room temperature for one day or more, thereby preparing a TS agar plate. 10 μl of each reaction solution of the peptide and the strain was plated on the TS agar plate at a constant size, and incubated in an incubator at 37° C. for 18 hours, and then colony formation on the plate was checked. The minimum bactericidal concentration was defined as the minimum concentration of the peptide at which no colony was formed, and the experimental results are shown in Table 1 below.

[2] = test system: Methicillin-resistant Staphylococcus aureus (MRSA, ATCC 33591); assay: Minimum bactericidal concentration (MBC) assay; design: unit: µg/mL; settings: Tables 11-21, no unit printed
Method: as §1, with “2×10^5 CFU/ml. […]” for “2×10^5 CFU/ml.”
as §3, with “checked.” for “checked. The minimum bactericidal concentration was defined as the minimum concentration of the peptide at which no colony was formed, and the experimental results are shown in Table 1 below.”
Specifically, each type of bacteria was cultured in 3% (w/v) TSB (tryptic soy broth) liquid medium at 37° C. and 200 rpm for 4 hours, and then further cultured under the same conditions for 3 hours to a concentration of 5×10^6 CFU/ml. Strain solutions were prepared by diluting each of the further cultured strains with SP buffer to a final concentration of 2×10^5 CFU/ml.
as §2, with “Then, the KU-5878” for “Then, each”
In addition, 10 μl of each reaction solution of the peptide and the strain was plated on the TS agar plate at a constant size, and incubated in an incubator at 37° C. for 18 hours, and then colony formation on the plate was checked.

[3] = test system: Pseudomonas aeruginosa (ATCC 27853); assay: Minimum bactericidal concentration (MBC) assay; design: MBC Pseudomonas aeruginosa: unit: µg/mL; settings: Tables 11-21, no unit printed
Method: as §1, §2, §3

[4] = test system: Pseudomonas aeruginosa, Staphylococcus aureus, CRPA, MRSA; assay: Increase in antibacterial activity (MBC) compared with KU-5878; settings: mark = antibacterial activity increased compared with KU-5878
CRPA = assay: Minimum bactericidal concentration (MBC) assay; design: unit: µg/mL; settings: Tables 11-21, no unit printed

Substance | MBC Staphylococcus aureus [1] | MBC MRSA [2] | MBC Pseudomonas aeruginosa [3] | Increase in activity [4] | MBC CRPA (CRPA)
KKMM-KGGKFGTF-AIG-GIR [d 62K 71M 75M] | 4 µg/mL | 3 µg/mL | 3 µg/mL | ◯ | 4 µg/mL
KKMM-KGGKFGTF-AIGMGIR [Peptide K4-d62K-d71M] | 12 µg/mL | 12 µg/mL | 12 µg/mL | ◯ | 12 µg/mL
KKMM-KGGKFGTFMAIGMGIR [5878-K4-d62K(=d63K)] | 6 µg/mL | 6 µg/mL | 2 µg/mL | ◯ | 6 µg/mL
KKMMKK-GKFGTF-AIG-GIR [d 64G 71M 75M] | 3 µg/mL | 3 µg/mL | 2 µg/mL | ◯ | 3 µg/mL
KKMMKK-GKFGTF-AIGMGIR [Peptide K4-d64G-d71M] | 15 µg/mL | 18 µg/mL | 15 µg/mL | ◯ | 18 µg/mL
KKMMKK-GKFGTFMAIGMGIR [5878-K4-d64G(=d65G)] | 2 µg/mL | 2 µg/mL | 2 µg/mL | ◯ | 4 µg/mL
KKMMKKGG-FGTFMAIGMGIR [Peptide 5878-K4-d66K] | 6 µg/mL | 4 µg/mL | 4 µg/mL | ◯ | 4 µg/mL
KKMMKKGGK-GTFMAIGMGIR [Peptide 5878-K4-d67F] | 6 µg/mL | 4 µg/mL | 4 µg/mL | ◯ | 5 µg/mL
KKMMKKGGKF-TFMAIGMGIR [Peptide 5878-K4-d68G] | 4 µg/mL | 4 µg/mL | 4 µg/mL | ◯ | 6 µg/mL
KKMMKKGGKFG-F--IGMGIR [d 69T 71M 72A] | 2 µg/mL | 4 µg/mL | 2 µg/mL | ◯ | 3 µg/mL
KKMMKKGGKFG-F-AIG-GIR [d 69T 71M 75M] | 2 µg/mL | 2 µg/mL | 2 µg/mL | ◯ | 3 µg/mL
KKMMKKGGKFG-F-AIGMGIR [Peptide K4-d69T-d71M] | 10 µg/mL | 12 µg/mL | 10 µg/mL | ◯ | 12 µg/mL
KKMMKKGGKFG-FMAIGMGIR [Peptide 5878-K4-d69T] | 2 µg/mL | 2 µg/mL | 4 µg/mL | ◯ | 3 µg/mL
KKMMKKGGKFGGFMAIGMGIR [Peptide K4-T69G] | 2 | 3 | 2 | ◯ | 2
KKMMKKGGKFGTF--IG-GIR [d 71M 72A 75M] | 3 µg/mL | 3 µg/mL | 2 µg/mL | ◯ | 2 µg/mL
KKMMKKGGKFGTF--IGMGIR [Peptide K4-d71M-d72A] | 20 µg/mL | 20 µg/mL | 20 µg/mL | ◯ | 20 µg/mL
KKMMKKGGKFGTF-AIG-GIR [Peptide K4-d71M-d75M] | 3 µg/mL | 5 µg/mL | 4 µg/mL | ◯ | 4 µg/mL

Substance | MBC Staphylococcus aureus [1] | MBC MRSA [2] | MBC Pseudomonas aeruginosa [3] | Increase in activity [4] | MBC CRPA (CRPA)
KKMMKKGGKFGTF-AIGMGIR [Peptide 5878-K4-d71M] | 4 µg/mL | 4 µg/mL | 2 µg/mL | ◯ | 6 µg/mL
KKMMKKGGKFGTFM-IGMGIR [Peptide 5878-K4-d72A] | 2 µg/mL | 3 µg/mL | 2 µg/mL | ◯ | 4 µg/mL
KKMMKKGGKFGTFMAI-MGIR [Peptide 5878-K4-d74G] | 2 µg/mL | 3 µg/mL | 2 µg/mL | ◯ | 4 µg/mL
KKMMKKGGKFGTFMAIG-GIR [Peptide 5878-K4-d75M] | 2 µg/mL | 2 µg/mL | 2 µg/mL | ◯ | 4 µg/mL
KKMMKKGGKFGTFMAIGM-IR [Peptide 5878-K4-d76G] | 4 µg/mL | 4 µg/mL | 4 µg/mL | ◯ | 4 µg/mL
KKMMKKGGKFGTFMAIGMG-R [Peptide 5878-K4-d77I] | 7 µg/mL | 4 µg/mL | 4 µg/mL | ◯ | 6 µg/mL
KKMMKKGGKFGTFMAIGMGI- [Peptide 5878-K4-78R] | 10 µg/mL | 4 µg/mL | 4 µg/mL | ◯ | 8 µg/mL
KKMMKKGGTFGTFMAIGMGIR [KU-5878-K3 (T59K, Q62K, S63K)] | 4 µg/mL | 5 µg/mL | 4 µg/mL | ◯ | 4 µg/mL
KKMMKSGGTFGTFMAIGMGIR [KU-5878-K2(T59K, Q62K)] | 8 µg/mL | 8 µg/mL | 8 µg/mL | ◯ | 6 µg/mL
KKMMQSGGTFGTFMAIGMGIR [KU-5878-T59K] | 40 µg/mL | 50 µg/mL | 50 µg/mL | ◯ | 50 µg/mL
KT-MQSGGTFGTFMAIGMGIR [Peptide 5878-d60M] | 90 µg/mL | 100 µg/mL | 90 µg/mL | 0 | 90 µg/mL
KTMM-SGGTFGTFMAIGMGIR [Peptide 5878-4620] | 90 µg/mL | 100 µg/mL | 100 µg/mL | 0 | 100 µg/mL
KTMMQS-GTFGTFMAIGMGIR [Peptide 5878-d64G] | 100 µg/mL | 100 µg/mL | 100 µg/mL | 0 | 110 µg/mL
KTMMQSGG-FGTFMAIGMGIR [Peptide 5878-d66T] | 90 µg/mL | 90 µg/mL | 90 µg/mL | 0 | 100 µg/mL
KTMMQSGGTF-TFMAIGMGIR [Peptide 5878-d68G] | 20 µg/mL | 25 µg/mL | 25 µg/mL | 0 | 18 µg/mL
KTMMQSGGTFGTFMAI-MGIR [Peptide 5878-d74G] | 25 µg/mL | 25 µg/mL | 20 µg/mL | 0 | 30 µg/mL
KTMMQSGGTFGTFMAIG-GIR [Peptide 5878-d75M] | 100 µg/mL | 110 µg/mL | 100 µg/mL | 0 | 100 µg/mL
